In the METLIN SMRT retention time set (Domingo-Almenara et al. 2019) one finds RP-LC retention time data, which are given here for 59 molecules.

The data set can be described thus: gradient 5% acetonitrile 3 min, to 50% in 2 min, to 85% in 15 min, held 3 min, 100 µL/min. The conditions noted are these: column: Zorbax Extend-C18 2.1 x 50 mm; eluents: water / acetonitrile, 0.1% formic acid. Put shortly:
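Over 3 months, pure standards in mixtures of ~100 molecules were run by HPLC coupled to a quadrupole time-of-flight mass spectrometer in positive and negative ionization mode. The column was a Zorbax Extend-C18 (2.1 × 50 mm, 1.8 μm) at 100 μL/min, eluted with water and acetonitrile each holding 0.1% formic acid, with 40 μL dead and 900 μL dwell volumes. Retention time was determined from adduct peaks chosen by software and checked manually.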
Turning to `CCOC(=O)c1c(CN2CCOCC2)n(C)c2cc(Br)c(OC)cc12`, the RP-LC retention time worked out at 698 s. `COc1ccc(-c2cc3c(=O)n(Cc4nc(-c5ccccc5)oc4C)ccn3n2)cc1` displayed an RP-LC retention time of 936 s. For `Cc1nn(-c2ccccc2)c2nc(N3CCCC(C(=O)NCc4ccc(F)cc4)C3)sc12` (centres undefined) the value was 806 s. For `COc1ccccc1NC(=O)CN1C(=O)NC2(CCCCC2)C1=O` the value was 760 s. With `O=C(NCC1CCCO1)c1ccc2ncnc(N3CCCCC3)c2c1` (centres undefined) the figure was 594 s; with `O=C(O)c1ccc(Nc2c(-c3ccccc3)nc3cnccn23)cc1`, 697 s; with `Cc1cc(C)c(NC(=O)Cn2cnc3nc(N4CCCC(C(=O)NC(C)C)C4)sc3c2=O)c(C)c1` (centres undefined), 728 s. For `COc1ccccc1NS(=O)(=O)c1cc(-c2cc(C(F)(F)F)on2)sc1C`, the RP-LC retention time is 1110 s.

As for `CN1C(=O)Cc2cc(NC(=O)c3ccc(C(F)(F)F)cc3)ccc21`, the RP-LC retention time came out at 748 s.

Turning to `CCn1c(C(=O)NCc2ccc(F)cc2)cc2sc(Cl)cc21`, the RP-LC retention time worked out at 1140 s. For `COc1cccc(-c2cc(C(=O)N3CCN(c4ccc(N5CCOCC5)nn4)CC3)[nH]n2)c1` the value was 610 s. `COc1cccc(NC(=O)Cn2nc3c(Oc4cc(C)cc(C)c4)nccn3c2=O)c1` yielded an RP-LC retention time of 904 s.

Consider `Cc1ccccc1-c1noc(Cc2nnc(-c3cc(F)cc(F)c3)o2)n1`, for which the RP-LC retention time was found to be 1090 s. Consider `CC(=O)N1CCc2cc(C(=O)NC(C)C)ccc21`, for which the RP-LC retention time was 644 s.

In the case of `COCCNC(=O)CSc1cc(N2CCN(c3ccc(OC)cc3)CC2)ncn1`, the RP-LC retention time stood at 662 s.

The molecule `CN(C)CC1CN(C(=O)c2cc(F)ccc2F)CC12CCOCC2` (centres undefined) yielded an RP-LC retention time of 572 s.

`O=C(Cc1ccccc1Cl)NC1CCN(c2cc(-c3ccc(F)cc3)[nH]n2)C1` (centres undefined): the RP-LC retention time was determined as 775 s. Take `CCOC(=O)c1noc2ncnc(Nc3ccc(CN4CCN(CC)CC4)cc3)c12`: the RP-LC retention time was determined as 638 s. With `CCN(CC)CCCNC(=O)C1CCCN(c2ncnc3c2nc2n3CCCCC2)C1` (centres undefined) the figure was 556 s; with `COc1ccc(-c2cc3n(n2)CCCN(C(=O)Cc2ccsc2)C3)cc1`, 822 s; with `Cc1cccc(C)c1NC(=O)Cn1cnc2c(sc3nc(-c4ccccc4)ccc32)c1=O`, 972 s. For `CN1CC(CNS(=O)(=O)c2ccccc2C(F)(F)F)C2(CCCCC2)C1` (centres undefined) the value was 696 s; for `CN(C)c1ccc(-c2nc3cnccn3c2Nc2ccc3c(c2)OCO3)cc1`, 737 s; for `CCCc1ccc(S(=O)(=O)N2CC=C(c3cn(C)c4ncccc34)CC2)cc1`, 1030 s. `O=c1ccn(-c2cccc(F)c2)nc1-c1nc(-c2ccccc2F)no1` gave an RP-LC retention time of 846 s. With `Cc1c(-c2noc(-c3ccc(F)cc3)n2)nnn1-c1ccccc1` the figure was 994 s; with `CCOC(=O)c1c(C)[nH]c(CCC(=O)NCCN2CCN(C)CC2)c1C`, 579 s; with `O=C(CC(F)(F)F)N1CCC(c2noc(-c3ccccc3)n2)C1` (centres undefined), 870 s.

`Cc1nc(C(=O)NCCCOC(C)C)c(C)n1C1CCN(C)CC1`: the RP-LC retention time came to 547 s.

On to `CCc1nc(-c2ccc(-c3noc(CNC(=O)c4ccc(C)cc4)n3)cc2)cs1`, for which the RP-LC retention time was found to be 1040 s.

`COc1cccc(Cn2c(=O)c3sccc3n(Cc3nc(-c4ccccc4)no3)c2=O)c1` registered an RP-LC retention time of 1000 s.

The molecule `Cn1nnc2ccc(-c3noc(-c4ccccc4F)n3)cc21` came in with an RP-LC retention time of 876 s. With `CCCSCCCNC(=O)c1cc2n(n1)CCCN(Cc1ccc(F)cc1)C2=O` the figure was 827 s; with `CC(=O)N1CCc2c(c(CNC(=O)Cc3c(C)noc3C)nn2C)C1`, 570 s. Consider `CCOC(=O)C1=CN(C)S(=O)(=O)N=C1C`, for which the RP-LC retention time came to 695 s. With `O=C(Nc1ccc(N2CCN(C3CCCC3)C2=O)nc1)c1ccc(Cl)cc1` the figure was 937 s. With `CC(C)Cc1ccc(S(=O)(=O)N2CCc3c(c(-c4nnc(-c5ccc(F)cc5)o4)nn3C)C2)cc1` the figure was 1180 s; with `Cc1cc(F)ccc1NC(=O)COc1cc(C(F)(F)F)c2c(C)nn(C)c2n1`, 985 s; with `CC1=C(c2ccccc2)S(=O)(=O)N=C1N1CCC(NC(=O)C2CCOC2)CC1` (centres undefined), 650 s.

On to `CCOC(=O)c1nc(N2CCOCC2)c2ccccc2n1`, for which the RP-LC retention time stood at 626 s.

Consider `CCCn1c(CCNC(=O)c2ccc(F)cc2F)nc2cccnc21`, for which the RP-LC retention time worked out at 675 s.

In turn, `COc1ccc(OC)c(S(=O)(=O)Cc2nc(-c3cccc(Br)c3)no2)c1` had an RP-LC retention time of 1030 s. For the molecule `Cc1ccc(CNC(=O)C2CCCN(C(=O)c3[nH]c(C)cc3C)C2)cc1` (centres undefined), the RP-LC retention time was 804 s. Take `CCC(C)Oc1nc2c(c(=O)n(C)c(=O)n2C)n1C` (centres undefined): the RP-LC retention time was determined as 865 s. Molecule `CCn1c(=O)c(C)nc2cc(-c3noc(-c4cccc(N(C)C)c4)n3)ccc21` yielded an RP-LC retention time of 1170 s. `O=C(NC1CCCCCC1)C1CCc2sc(C(=O)N3CCOCC3)cc2C1` (centres undefined) showed an RP-LC retention time of 789 s. With `CCc1cc(C(=O)Nc2cccc(C#N)c2)nc2ccnn12` the figure was 939 s.

Consider `CCOC(=O)c1ccccc1NC(=O)Cn1cnc2nc(N3CCCC(C(=O)NC)C3)sc2c1=O` (centres undefined), for which the RP-LC retention time was 640 s. For `CCOC(=O)C1CCN(c2ccc3nnc(CCc4nc(-c5ccc(F)cc5)no4)n3n2)CC1` the value was 966 s; for `COc1ccc(C(=O)CC2(O)C(=O)Nc3c(C)cccc32)cc1OC` (centres undefined), 688 s.

`CCOc1ccccc1NC(=O)C1CCN(S(=O)(=O)c2c(C)nn(-c3ccccc3)c2C)CC1` returned an RP-LC retention time of 1030 s. For `COc1ccc(OC)c(NC(=O)CN2CCc3[nH]c4c(C)c(C)ccc4c(=O)c3C2)c1` the value was 642 s; for `Cc1ccc(C)c(N2CCN(C(=O)c3ccc(C)c(NC(=O)C4=CSCCO4)c3)CC2)c1`, 1070 s. `CCN1C(=O)C(C)(C)COc2cc(NC(=O)Nc3ccccc3C(F)(F)F)ccc21` yielded an RP-LC retention time of 943 s.

The molecule `COc1cc(F)ccc1-c1ccnc2nc(Cc3ccc(F)cc3)nn12` returned an RP-LC retention time of 905 s. With `Cn1nc(C(=O)Nc2ccc(F)cc2)c2c1-c1cc(Cl)ccc1SC2` the figure was 1280 s; with `CCn1nnc2cc(-c3noc(CN4C(=O)COc5ccccc54)n3)ccc21`, 845 s; with `O=C(Cn1nc2c3cc(F)ccc3ncn2c1=O)Nc1ccc(F)c(Cl)c1`, 706 s.

In the case of `Cc1c(-c2ccnc(N3CCCC3)n2)cnc2nc(-c3ccccc3)nn12`, the RP-LC retention time was 933 s.
